Assay results published in ChEMBL document CHEMBL3797180, “Squaramides with cytotoxic activity against human gastric carcinoma cells HGC-27: synthesis and mechanism of action” (Medchemcomm, 2016).
Calls of active or inactive are those of the source. No cut-off for these calls is given here.

Legend:
HeLa [1] = assay: Cytotoxicity against human HeLa cells assessed as inhibition of cell viability at 20 uM after 24 hrs by MTT assay; format: functional, cell-based
[2] = Cytotoxicity against HGC27 cells after 24 hrs by MTT assay; format: functional, cell-based; settings: Homo sapiens, HGC-27, 24 h
HeLa [3] = assay: Cytotoxicity against human HeLa cells assessed as inhibition of cell viability at 100 uM after 24 hrs by MTT assay; format: functional, cell-based
HGC-27 [4] = assay: Cytotoxicity against HGC27 cells assessed as inhibition of cell viability at 100 uM after 24 hrs by MTT assay; format: functional, cell-based; settings: Homo sapiens
HGC-27 [5] = assay: Cytotoxicity against HGC27 cells assessed as inhibition of cell viability at 20 uM after 24 hrs by MTT assay; format: functional, cell-based; settings: Homo sapiens
HeLa [6] = assay: Cytotoxicity against human HeLa cells after 24 hrs by MTT assay; format: functional, cell-based
HGC-27 [7] = assay: Induction of apoptosis in HGC27 cells assessed as necrotic cells at 2 uM after 24 hrs by Annexin-V-FITC/propidium iodide staining-based flow cytometry; format: functional, Homo sapiens
HGC-27 [8] = assay: Induction of apoptosis in HGC27 cells assessed as late apoptotic cells at 2 uM after 24 hrs by Annexin-V-FITC/propidium iodide staining-based flow cytometry (reference value: 6.7%); format: functional, Homo sapiens
HGC-27 [9] = assay: Induction of apoptosis in HGC27 cells assessed as early apoptotic cells at 2 uM after 24 hrs by Annexin-V-FITC/propidium iodide staining-based flow cytometry (reference value: 6.7%); format: functional, Homo sapiens
HGC-27 [10] = assay: Induction of apoptosis in HGC27 cells assessed as apoptotic cells after 24 hrs by Annexin-V-FITC/propidium iodide staining-based flow cytometry; format: functional, cell-based; settings: Homo sapiens

| Compound | inhibition (HeLa [1]) | inhibition (HeLa [3]) | inhibition (HGC-27 [4]) | inhibition (HGC-27 [5]) | further results |
| --- | --- | --- | --- | --- | --- |
| C=CC1CN2CCC1CC2[C@@H](Nc1c(Nc2ccc(C(F)(F)F)cc2)c(=O)c1=O)c1ccnc2ccccc12 (stereo partly drawn) | Active | Active | Active | Active | IC50 [2]: 4.53 µM; IC50 (HeLa [6]): 10.8 µM |
| O=c1c(Nc2cc(C(F)(F)F)cc(C(F)(F)F)c2)c(N[C@H]2c3ccccc3C[C@H]2O)c1=O |  | Active | Active |  |  |
| COc1c(N(C)c2ccccc2)c(=O)c1=O |  | inactive | inactive |  |  |
| COc1c(Nc2ccc(C(F)(F)F)cc2)c(=O)c1=O |  | inactive | inactive |  |  |
| C=CC1CN2CCC1CC2[C@H](Nc1c(NCc2cc(C(F)(F)F)cc(C(F)(F)F)c2)c(=O)c1=O)c1ccnc2ccccc12 (stereo partly drawn) | Active | Active | Active | Active | IC50 [2]: 3.01 µM; IC50 (HeLa [6]): 12.1 µM |
| COc1c(N[C@@H]2CCCC[C@H]2NS(=O)(=O)c2ccc(C)cc2)c(=O)c1=O |  | inactive | inactive |  |  |
| C=CC1CN2CCC1CC2[C@@H](Nc1c(Nc2ccc(C(F)(F)F)cc2)c(=O)c1=O)c1ccnc2ccc(OC)cc12 (stereo partly drawn) | inactive | Active | Active | Active | IC50 [2]: 12.8 µM; IC50 (HeLa [6]): > 20 µM |
| COc1c(Nc2ccc([N+](=O)[O-])cc2)c(=O)c1=O |  | inactive | inactive |  |  |
| O=c1c(Nc2cc(C(F)(F)F)cc(C(F)(F)F)c2)c(N[C@@H]2CCCC[C@H]2N2CCCCC2)c1=O | Active | Active | Active | Active |  |
| COc1c(Nc2ccccc2)c(=O)c1=O |  | inactive | inactive |  |  |
| C[C@@H](Nc1c(Nc2cc(C(F)(F)F)cc(C(F)(F)F)c2)c(=O)c1=O)c1ccccc1 | inactive | Active | Active | inactive |  |
| COc1c(N[C@@H](C)c2cccc3ccccc23)c(=O)c1=O |  | inactive | inactive |  |  |
| COc1ccc(Nc2c(OC)c(=O)c2=O)c(OC)c1 |  | inactive | inactive |  |  |
| C=CC1CN2CCC1CC2[C@@H](Nc1c(Nc2cc(C(F)(F)F)cc(C(F)(F)F)c2)c(=O)c1=O)c1ccnc2ccccc12 (stereo partly drawn) | Active | Active | Active | Active | IC50 [2]: 8.12 µM; IC50 (HeLa [6]): 11.3 µM |
| COc1c(N[C@H]2c3ccccc3C[C@H]2O)c(=O)c1=O |  | inactive | inactive |  |  |
| O=c1c(Nc2ccc3ccccc3c2-c2c(O)ccc3ccccc23)c(N[C@@H]2CCCC[C@H]2N2CCCCC2)c1=O | inactive |  |  | Active | IC50 [2]: 11.1 µM; IC50 (HeLa [6]): > 20 µM |
| COc1c(Nc2ccc(C(C)(C)C)cc2)c(=O)c1=O |  | inactive | inactive |  |  |
| COc1c(Nc2cc(F)c(F)c(F)c2)c(=O)c1=O |  | inactive | inactive |  |  |

| Compound | inhibition (HeLa [1]) | inhibition (HeLa [3]) | inhibition (HGC-27 [4]) | inhibition (HGC-27 [5]) | further results |
| --- | --- | --- | --- | --- | --- |
| COc1c(Nc2cc(F)cc(F)c2)c(=O)c1=O |  | inactive | inactive |  |  |
| C[C@H](c1c(Nc2cc(F)cc(F)c2)c(=O)c1=O)c1cccc2ccccc12 | Active |  |  | Active |  |
| Cc1ccc(S(=O)(=O)N[C@@H]2CCCC[C@H]2Nc2c(NCc3cc(C(F)(F)F)cc(C(F)(F)F)c3)c(=O)c2=O)cc1 | inactive | Active | Active | inactive |  |
| O=c1c(Nc2ccc(C(F)(F)F)cc2)c(N[C@@H]2CCCC[C@H]2N2CCCCC2)c1=O | inactive |  |  | inactive |  |
| O=c1c(Nc2cc(F)c(F)c(F)c2)c(N[C@@H]2CCCC[C@H]2N2CCCCC2)c1=O | inactive |  |  | inactive |  |
| COc1cccc2c1C(=O)c1c(O)c3c(c(O)c1C2=O)C[C@@](O)(C(=O)CO)C[C@@H]3O[C@H]1C[C@H](N)[C@H](O)[C@H](C)O1 [DOXORUBICIN] |  |  |  |  | Activity (HGC-27 [7]): 32.4%; IC50 [2]: 37.4 µM; Activity (HGC-27 [8]): 16.7%; Activity (HGC-27 [9]): 3.2%; Activity (HGC-27 [10]): Dose-dependent effect |
| O=c1c(Nc2cc(F)cc(F)c2)c(N[C@@H](c2ccccc2)C(O)(c2ccccc2)c2ccccc2)c1=O | inactive |  |  | Active | IC50 [2]: 3.39 µM; IC50 (HeLa [6]): > 20 µM |
| C=CC1CN2CCC1CC2[C@@H](Nc1c(NCc2cc(C(F)(F)F)cc(C(F)(F)F)c2)c(=O)c1=O)c1ccnc2ccc(OC)cc12 (stereo partly drawn) |  | Active | Active |  |  |
| CCc1cc(C#N)ccc1Nc1c(OC)c(=O)c1=O |  | inactive | inactive |  |  |
| Cc1ccc(S(=O)(=O)N[C@@H]2CCCC[C@H]2Nc2c(Nc3cc(C(F)(F)F)cc(C(F)(F)F)c3)c(=O)c2=O)cc1 | inactive | Active | Active | inactive |  |
| CN(C)[C@@H]1CCCC[C@H]1Nc1c(Nc2cc(C(F)(F)F)cc(C(F)(F)F)c2)c(=O)c1=O | inactive | Active | Active | inactive |  |
| O=c1c(NCc2cc(C(F)(F)F)cc(C(F)(F)F)c2)c(N[C@@H]2CCCC[C@H]2N2CCCCC2)c1=O |  | Active | Active |  |  |
| O=c1c(Nc2ccc(C(F)(F)F)cc2)c(N[C@@H]2CCCC[C@@H]2N2CCCCC2)c1=O | inactive |  |  | inactive |  |
| C=CC1CN2CCC1CC2[C@@H](Nc1c(Nc2cc(C(F)(F)F)cc(C(F)(F)F)c2)c(=O)c1=O)c1ccnc2ccc(OC)cc12 (stereo partly drawn) | Active | Active | Active | Active | IC50 [2]: 8.21 µM; IC50 (HeLa [6]): 15.2 µM |
| O=c1c(Nc2ccc3ccccc3c2-c2c(O)ccc3ccccc23)c(N[C@@H]2CCCC[C@H]2N2CCCC2)c1=O | inactive |  |  | Active | IC50 [2]: 10.8 µM; IC50 (HeLa [6]): > 20 µM |
| O=c1c(Nc2cc(C(F)(F)F)cc(C(F)(F)F)c2)c(N[C@@H](CO)Cc2ccccc2)c1=O | inactive | Active | Active | inactive |  |
| COc1ccc(Nc2c(OC)c(=O)c2=O)cc1 |  | inactive | inactive |  |  |
| COc1c(Nc2cc(OC(C)C)c(Cl)cc2Cl)c(=O)c1=O |  | inactive | inactive |  |  |
